# ChEMBL document CHEMBL1140134, “Structure-guided design of N-phenyl tertiary amines as transrepression-selective liver X receptor modulators with anti-inflammatory activity” (J Med Chem, 2008)
# Experiments:
# [1] = molecular target: T1, Oxysterols receptor LXR-alpha (Homo sapiens, UniProt Q13133); test: Displacement of [N-methyl-3H]GW0438 from human biotinylated LXRalpha ligand binding domain
# T1 sequence (Q13133 whole entry): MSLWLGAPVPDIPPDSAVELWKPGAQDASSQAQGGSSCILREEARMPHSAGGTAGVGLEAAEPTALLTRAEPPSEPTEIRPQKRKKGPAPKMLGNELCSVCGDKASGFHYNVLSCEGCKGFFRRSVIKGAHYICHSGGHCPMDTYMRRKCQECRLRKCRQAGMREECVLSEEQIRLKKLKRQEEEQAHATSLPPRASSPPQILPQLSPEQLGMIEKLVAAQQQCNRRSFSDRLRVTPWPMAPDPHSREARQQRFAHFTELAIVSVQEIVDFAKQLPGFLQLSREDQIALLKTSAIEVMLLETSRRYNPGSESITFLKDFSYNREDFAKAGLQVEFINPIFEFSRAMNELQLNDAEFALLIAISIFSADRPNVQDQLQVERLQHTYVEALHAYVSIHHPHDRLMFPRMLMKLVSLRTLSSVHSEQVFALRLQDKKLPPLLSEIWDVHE
# Huh-7 = test: Lipogenic activity against human HuH7 cells assessed as triglyceride accumulation at 10 uM after 4 days relative to N-(4-(1,1,1,3,3,3-hexafluoro-2-hydroxypropan-2-yl)phenyl)-N-(2,2,2-trifluoroethyl)benzenesulfonamide; assay type: functional
# THP-1 [2] = test: Antiinflammatory activity against human THP1 cells assessed as inhibition of LPS-stimulated IL6 production after 6 hrs by ELISA; assay type: functional, cell-based; conditions: THP-1, 6 h
# THP-1 [3] = test: Antiinflammatory activity against human THP1 cells assessed as inhibition of LPS-stimulated IL6 production by ELISA relative to N-(4-(1,1,1,3,3,3-hexafluoro-2-hydroxypropan-2-yl)phenyl)-N-(2,2,2-trifluoroethyl)benzenesulfonamide; assay type: functional
# [4] = molecular target: Oxysterols receptor LXR-beta (Homo sapiens, UniProt P55055)
# Oxysterols receptor LXR-beta, sequence (P55055 whole entry): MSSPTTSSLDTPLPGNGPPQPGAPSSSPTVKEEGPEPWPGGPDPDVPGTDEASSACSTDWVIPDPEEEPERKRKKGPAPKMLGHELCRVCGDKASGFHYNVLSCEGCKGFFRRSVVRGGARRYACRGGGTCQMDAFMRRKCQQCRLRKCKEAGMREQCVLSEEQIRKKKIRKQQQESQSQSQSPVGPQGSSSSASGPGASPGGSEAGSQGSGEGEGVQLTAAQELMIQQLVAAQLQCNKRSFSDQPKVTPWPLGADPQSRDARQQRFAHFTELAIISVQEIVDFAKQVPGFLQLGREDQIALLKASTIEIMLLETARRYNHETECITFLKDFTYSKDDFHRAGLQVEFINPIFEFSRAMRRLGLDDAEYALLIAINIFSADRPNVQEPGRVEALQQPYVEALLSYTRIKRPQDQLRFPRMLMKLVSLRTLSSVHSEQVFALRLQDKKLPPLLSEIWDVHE
# [5] = molecular target: T2, Nuclear receptor subfamily 1 group I member 2 (Homo sapiens, UniProt O75469); test: Inhibition of human PXR
# T2 sequence (O75469 whole entry): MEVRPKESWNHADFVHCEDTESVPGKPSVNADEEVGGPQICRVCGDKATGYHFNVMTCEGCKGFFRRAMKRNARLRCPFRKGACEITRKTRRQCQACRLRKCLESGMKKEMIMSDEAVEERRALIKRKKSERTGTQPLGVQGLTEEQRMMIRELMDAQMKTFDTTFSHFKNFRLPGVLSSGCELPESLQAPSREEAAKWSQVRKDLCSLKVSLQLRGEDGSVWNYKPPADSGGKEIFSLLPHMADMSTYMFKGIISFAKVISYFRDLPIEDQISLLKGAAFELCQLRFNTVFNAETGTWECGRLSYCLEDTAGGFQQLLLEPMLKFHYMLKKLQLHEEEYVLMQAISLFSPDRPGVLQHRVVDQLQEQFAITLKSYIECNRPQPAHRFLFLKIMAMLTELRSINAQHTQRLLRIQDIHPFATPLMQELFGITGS
# [6] = molecular target: T1, Oxysterols receptor LXR-alpha; test: Activation of LXRalpha by GAL4 reporter gene assay
# [7] = Metabolic stability in human HuH7 cells at 1 uM after 24 hrs; assay type: ADME, cell-based, Huh-7; conditions: read-out: Stability
SMILES,IC50 [1] [nM],IC50 (THP-1 [2]) [nM],IC50 [4] [nM],EC50 [5] [nM],EC50 [6] [nM],"remaining at 24 h, 1 µM [7] [%]",Activity (Huh-7),Activity (THP-1 [3])
CCCCN(Cc1cc(OC(F)(F)F)ccc1O)c1ccc(C(O)(C(F)(F)F)C(F)(F)F)cc1,190,,,,,,1,
O=C(O)Cc1cccc(OCCCN(Cc2cccc(C(F)(F)F)c2Cl)CC(c2ccccc2)c2ccccc2)c1,235,20,30,,,,1,1
OC(c1ccc(N(Cc2ccccc2)Cc2ccccc2)cc1)(C(F)(F)F)C(F)(F)F,315,,,,,,>0.5,
CCCCN(Cc1cc(Cl)ccc1O)c1ccc(C(O)(C(F)(F)F)C(F)(F)F)cc1,220,55,,,,,1,1
CCCCN(Cc1cc(Cl)cc(Cl)c1)c1ccc(C(O)(C(F)(F)F)C(F)(F)F)cc1,195,10,,,,,0.7,1
CN(Cc1ccccc1)c1ccc(C(O)(C(F)(F)F)C(F)(F)F)cc1,310,,,,,,>0.5,
CCCCN(Cc1ccccc1O)c1ccc(C(O)(C(F)(F)F)C(F)(F)F)cc1,180,35,,,,,0.6,1
CCCCN(Cc1ccc(O)cc1)c1ccc(C(O)(C(F)(F)F)C(F)(F)F)cc1,955,,,,,,,
CCCCN(Cc1cc(Cl)cc(Cl)c1O)c1ccc(C(O)(C(F)(F)F)C(F)(F)F)cc1,890,1290,,,,,,<0.5
CCCCN(Cc1cc(Cl)c(O)c(Cl)c1)c1ccc(C(O)(C(F)(F)F)C(F)(F)F)cc1,180,15,,250,3000,40,<0.1,1
CCCCN(Cc1cccc(F)c1O)c1ccc(C(O)(C(F)(F)F)C(F)(F)F)cc1,615,60,,,,,1.9,1
CCCCN(Cc1cc(Cl)c(O)c(OC)c1)c1ccc(C(O)(C(F)(F)F)C(F)(F)F)cc1,775,10,,,,,<0.2,1
O=S(=O)(c1ccccc1)N(CC(F)(F)F)c1ccc(C(O)(C(F)(F)F)C(F)(F)F)cc1 [T091317],,100,,,,65,1,1
CCCCN(Cc1cc(Cl)c(OC)c(Cl)c1)c1ccc(C(O)(C(F)(F)F)C(F)(F)F)cc1,170,15,,,,,0.8,1
CCCCN(Cc1ccc(O)c(Cl)c1)c1ccc(C(O)(C(F)(F)F)C(F)(F)F)cc1,560,25,,,,,0.6,1

# Now from value to compound, other results behind:
IC50 [1] [nM],IC50 (THP-1 [2]) [nM],IC50 [4] [nM],EC50 [5] [nM],EC50 [6] [nM],"remaining at 24 h, 1 µM [7] [%]",SMILES,Activity (Huh-7),Activity (THP-1 [3])
120,20,,,,,CCCCN(Cc1ccccn1)c1ccc(C(O)(C(F)(F)F)C(F)(F)F)cc1,1.1,1
165,15,,,,,CCCCN(Cc1cc(Cl)c(OC)c(OC)c1)c1ccc(C(O)(C(F)(F)F)C(F)(F)F)cc1,0.4,1
170,25,,,,,CCCCN(Cc1ccccc1)c1ccc(C(O)(C(F)(F)F)C(F)(F)F)cc1,0.8,1
90,20,,,,,CCCCN(Cc1ccncc1)c1ccc(C(O)(C(F)(F)F)C(F)(F)F)cc1,1.1,1
160,35,,,,,CCCCN(Cc1cccc(O)c1)c1ccc(C(O)(C(F)(F)F)C(F)(F)F)cc1,0.5,1
115,5,,,,,CCCCN(Cc1cccc(OCCO)c1)c1ccc(C(O)(C(F)(F)F)C(F)(F)F)cc1,1.8,1
